Key:
leukaemia P388 = test: Antitumour activity against leukaemia P388 in rats CD2 F1, i.p. (Table I); format: in vivo; settings: for MST / T/C % / TOX: day 1; for LTS (60 days): day 1, 60 days
Protocol: 10^5 leukaemic cells were injected at day 0 and the compounds were administered intraperitoneally the day after, defined as day 1 of the experiment.

leukaemia L1210/CDDP = test: Effect on leukaemia L1210/CDDP (cis-platinum resistant) in rats CD2 F1, i.p. (Table II); format: in vivo, rats CD2 Fl; settings: for MST / T/C %: day 1; for LTS (60 days): day 1, 60 days
Protocol: ^a) 10^5 cell/rat injected i.p. at day
Compounds were administered at day "1

L1210/CDDP cells = test: In vitro growth inhibition of murine leukaemia L1210/CDDP (Table III); format: cell-based
Protocol: (§1) Effect of BBR 1939 on in vitro growth^b) of murine leukaemia^a)
(§2) ^a) 10^5 cells were plated in triplicate at time
(§3) ^b) means used: RPMI 1640 + 10 Y FCS (inactivated in warm) +
(§4) 2mercaptoethanol 10^-3 M
(§5) ^c) IC %: inhibition percentage of cellular growth (treated animals

K562 cells = test: In vitro growth inhibition of human erythroleukosis K562 (Table III); format: cell-based
Protocol: as §1
L1210/CDDP and human erythroleukosis
K562 b - Comparison with CDDP:
as §2, §3, §4, §5

human tumors = settings: cited from earlier work

**Q.** For O=C1c2c(O)ccc(O)c2C(=O)c2c(NCCNCCO)ccc(NCCNCCO)c21 [Mitoxanthrone], which MST (leukaemia P388; 3.75 mg/Kg) is on record?
**A.** 32.5 days

**Q.** What about the T/C % (leukaemia P388; 3.75 mg/Kg) of the same compound?
**A.** 295%

**Q.** What about the TOX (leukaemia P388; 3.75 mg/Kg) of the same compound?
**A.** 0/7

**Q.** What about the “LTS (60 days)” value (leukaemia P388; 3.75 mg/Kg) of the same compound?
**A.** 2/7

**Q.** And the MST (leukaemia P388; 11.1 mg/Kg)?
**A.** 36.5 days

**Q.** And the T/C % (leukaemia P388; 11.1 mg/Kg)?
**A.** 331%

**Q.** What about the TOX (leukaemia P388; 11.1 mg/Kg) of the same compound?
**A.** 0/7

**Q.** What about the “LTS (60 days)” value (leukaemia P388; 11.1 mg/Kg) of the same compound?
**A.** 1/7

**Q.** What about the MST (leukaemia P388; 18.4 mg/Kg) of the same compound?
**A.** 42.5 days

**Q.** What about the T/C % (leukaemia P388; 18.4 mg/Kg) of the same compound?
**A.** 386%

**Q.** What about the TOX (leukaemia P388; 18.4 mg/Kg) of the same compound?
**A.** 0/7

**Q.** And the “LTS (60 days)” value (leukaemia P388; 18.4 mg/Kg)?
**A.** 1/7

**Q.** And the MST (leukaemia P388; 25.8 mg/Kg)?
**A.** 40.5 days

**Q.** And the T/C % (leukaemia P388; 25.8 mg/Kg)?
**A.** 368%

**Q.** What about the TOX (leukaemia P388; 25.8 mg/Kg) of the same compound?
**A.** 1/7

**Q.** What about the “LTS (60 days)” value (leukaemia P388; 25.8 mg/Kg) of the same compound?
**A.** 0/7

**Q.** What does the source list for N.N.[Cl][Pt][Cl] [cis-platinum, cis-diaminodichloroplatinum II]?
**A.** MST (leukaemia P388; 6 mg/Kg): 22.5 days; T/C % (leukaemia P388; 6 mg/Kg): 198%; LTS (60 days) (leukaemia P388; 6 mg/Kg): 0/7; MST (leukaemia P388; 10 mg/Kg): 18.8 days; T/C % (leukaemia P388; 10 mg/Kg): 162%; LTS (60 days) (leukaemia P388; 10 mg/Kg): 0/7; MST (leukaemia P388; 14 mg/Kg): 11.5 days; T/C % (leukaemia P388; 14 mg/Kg): 99%; LTS (60 days) (leukaemia P388; 14 mg/Kg): 0/7; MST (leukaemia L1210/CDDP; 5 mg/Kg): 11.1 days; T/C % (leukaemia L1210/CDDP; 5 mg/Kg): 97%; LTS (60 days) (leukaemia L1210/CDDP; 5 mg/Kg): 0/10; MST (leukaemia L1210/CDDP; 7.5 mg/Kg): 11.6 days; T/C % (leukaemia L1210/CDDP; 7.5 mg/Kg): 101%; LTS (60 days) (leukaemia L1210/CDDP; 7.5 mg/Kg): 0/10; MST (leukaemia L1210/CDDP; 12.5 mg/Kg): 9.3 days; T/C % (leukaemia L1210/CDDP; 12.5 mg/Kg): 103%; LTS (60 days) (leukaemia L1210/CDDP; 12.5 mg/Kg): 0/10; IC % (inhibition percentage of cellular growth) (L1210/CDDP cells; 0.5 ug/ml, after 24 hours): 20%; IC % (inhibition percentage of cellular growth) (L1210/CDDP cells; 0.5 ug/ml, after 48 hours): 8%; IC % (inhibition percentage of cellular growth) (L1210/CDDP cells; 0.5 ug/ml, after 72 hours): 37%; IC % (inhibition percentage of cellular growth) (L1210/CDDP cells; 1 ug/ml, after 24 hours): 30%; IC % (inhibition percentage of cellular growth) (L1210/CDDP cells; 1 ug/ml, after 48 hours): 18%; IC % (inhibition percentage of cellular growth) (L1210/CDDP cells; 1 ug/ml, after 72 hours): 44%; IC % (inhibition percentage of cellular growth) (L1210/CDDP cells; 5 ug/ml, after 24 hours): 54%; IC % (inhibition percentage of cellular growth) (L1210/CDDP cells; 5 ug/ml, after 48 hours): 87%; IC % (inhibition percentage of cellular growth) (L1210/CDDP cells; 5 ug/ml, after 72 hours): 84%; IC % (inhibition percentage of cellular growth) (L1210/CDDP cells; 10 ug/ml, after 24 hours): 78%; IC % (inhibition percentage of cellular growth) (L1210/CDDP cells; 10 ug/ml, after 48 hours): 92%; IC % (inhibition percentage of cellular growth) (L1210/CDDP cells; 10 ug/ml, after 72 hours): 86%; IC % (inhibition percentage of cellular growth) (L1210/CDDP cells; 50 ug/ml, after 24 hours): 80%; IC % (inhibition percentage of cellular growth) (L1210/CDDP cells; 50 ug/ml, after 48 hours): 99%; IC % (inhibition percentage of cellular growth) (L1210/CDDP cells; 50 ug/ml, after 72 hours): 100%; IC % (inhibition percentage of cellular growth) (K562 cells; 1 ug/ml, after 24 hours): 22%; IC % (inhibition percentage of cellular growth) (K562 cells; 1 ug/ml, after 48 hours): 52%; IC % (inhibition percentage of cellular growth) (K562 cells; 1 ug/ml, after 72 hours): 54%; IC % (inhibition percentage of cellular growth) (K562 cells; 5 ug/ml, after 24 hours): 28%; IC % (inhibition percentage of cellular growth) (K562 cells; 5 ug/ml, after 48 hours): 71%; IC % (inhibition percentage of cellular growth) (K562 cells; 5 ug/ml, after 72 hours): 82%; IC % (inhibition percentage of cellular growth) (K562 cells; 10 ug/ml, after 24 hours): 35%; IC % (inhibition percentage of cellular growth) (K562 cells; 10 ug/ml, after 48 hours): 76%; IC % (inhibition percentage of cellular growth) (K562 cells; 10 ug/ml, after 72 hours): 87%; IC % (inhibition percentage of cellular growth) (K562 cells; 50 ug/ml, after 24 hours): 52%; IC % (inhibition percentage of cellular growth) (K562 cells; 50 ug/ml, after 48 hours): 85%; IC % (inhibition percentage of cellular growth) (K562 cells; 50 ug/ml, after 72 hours): 91%; IC % (inhibition percentage of cellular growth) (K562 cells; 100 ug/ml, after 24 hours): 56%; IC % (inhibition percentage of cellular growth) (K562 cells; 100 ug/ml, after 48 hours): 85%; IC % (inhibition percentage of cellular growth) (K562 cells; 100 ug/ml, after 72 hours): 91%; clinical efficacy (human tumors; clinical observation): Clinical observation confirms the efficacy of the compound in a number of human tumors; side effects (human tumors; clinical): serious gastro-intestinal, renal side effects, hematologic and neurologic complications (ototoxicity)
